# Reference: US10854312B2, “Selective peptide antagonists” (BIONIZ, LLC, priority 2013, dated 2020)
# “Also recorded” adds a separate entry of the source. No end group written: not given here.
# Experiments:
# Type in all cases: cell-based
# mouse IL-9 = experiment: PT-18 proliferation assay (WST-1), IL-9; details: murine PT-18 cells, 1 nM mouse IL-9, BNZ132-1 50 nM, 500 nM, 5 μM
# Experimental: FIG. 6A-FIG. 6E presents inhibitory spectrum of BNZ132-1 over γc- and non-γc-cytokines. […] Neutralizing antibodies against each cytokine (R & D systems, 5 μg ml^−1) were included as controls. After 20 h, the cells were pulsed with WST-1 (Clontech) and OD450 of each well was measured after 6 h. A 19-mer scrambled peptide was used as a negative control at 5 μM. The experiments were conducted in triplicate (applies to all experiments in FIG. 6A-FIG. 6E). The result represents one of at least three independent experiments (applies to all experiments in FIG. 6A-FIG. 6E). […] In PT-18 proliferation assay, PT-18β or PT-18h21Rα cells were withdrawn of mouse IL-3 for 12 h before the experiment. Cells were then incubated with 1 nM of mouse IL-4, mouse IL-9, or mouse IL-21 in the presence or absence of the indicated doses (μM) of BNZ132-1. Neutralizing antibodies to each cytokine (5 μg ml^−1, except for anti-mouse IL-21 polyclonal antibody which was used at 15 μg ml−1) and a scrambled control peptide (5 μM) were included as negative controls. WST-1 assay was conducted as described above. […] In PT-18 h21Rα survival assay, PT-18h21Rα cells are described in the text. […] Both parental and hIL-21Rα positive PT-18 cells were washed and incubated without IL-3 for 12 h before the assay. […] The Y-axis represents the cpm (count per minute) values measured by a β-counter. […]
# human IL-2 = experiment: NK92 cell proliferation assay (WST-1), IL-2; details: 24 h
# Experimental: (§1) Human peripheral blood mononuclear cells were purified by the Ficoll-paque gradient centrifugation (GE-Healthcare) and stimulated by PHA (5 μg ml^−1, Sigma) for 48 h, then expanded with IL-2 (0.5 nM, Peprotech) for 48h, and then depleted of non-T cells by the Pan-T cell negative enrichment Ab cocktails (Miltenyi). The purified T cells were then fasted of IL-2 overnight prior to the proliferation assay by the tetrazolium dye method. Four hundred thousand cells (in 200 μl culture) were incubated with the cytokines and BNZ132-1 at the indicated concentrations for 24 h, and 20 μl WST1 reagent (Clontech) was added to each well. After 12 h incubation, OD450 was measured. The assay was performed in triplicate. […] NK 92 cells were cultured in human IL-2. Cells were washed to withdraw IL-2 for overnight and two hundred thousand cells (in 200 μl volume) were incubated with the indicated concentrations of the cytokine and BNZ132-1 for 24 h before 20 μl WST-1 reagent (Clontech) was added to each well to measure proliferative response. Absorbance at 450 nm was read at 6 h after the addition of the WST-1 dye. The assay was performed in triplicate. The assay was performed in triplicate and the figure represents a typical result out of 5 different HAM-TSP patients.
# (§2) FIG. 8B, and FIG. 8C show the results of NK92 cell proliferation assay. NK92 cells responded to IL-2 and IL-15. […]
# human IL-15 = experiment: NK92 cell proliferation assay (WST-1), IL-15; details: 24 h
# Experimental: as §1, §2
# human IL-9 = experiment: NK92 cell proliferation assay (WST-1), IL-9; details: 24 h
# Experimental: as §1
# γc-cytokines = experiment: Target cytokine spectrum within the γc-family
sequence,measurement,setting,value
IKEFLQRFIHIVQSIINTS [BNZ132-1],inhibition of IL-9-induced proliferation of PT-18 cells,mouse IL-9,partially inhibited; also recorded: inhibition of IL-9
same,inhibition of IL-2-induced proliferation of NK92 cells,human IL-2,dose-dependent manner; also recorded: dose-dependent inhibition
same,inhibition of IL-15-induced proliferation of NK92 cells,human IL-15,dose-dependent manner; also recorded: dose-dependent inhibition
same,inhibition of IL-9-induced proliferation of NK92 cells,human IL-9,dose-dependent inhibition
same,γc-cytokines not inhibited,"γc-cytokines; IL-4, IL-7 and IL-21","excludes IL-4,-7 or -21"
same,γc-cytokines inhibited,"γc-cytokines; summary statements, BNZ132-2 and -3 data not shown","specifically inhibits IL-2, IL-15 and IL-9; also recorded: restricted to IL-2, -15, and -9"
